Literature values as cited in publication PMC3066546, “Development of modified nucleosides that have supremely high anti-HIV activity and low toxicity and prevent the emergence of resistant HIV mutants” (Proceedings of the Japan Academy. Series B, Physical and …, 2011).
pEC50: −log10 of the molar value. Like-named read-outs stand apart in the source and are kept apart here.

Assays:
[1] = tested on: HIV; design: method as in PMID 15456247
[2] = tested on: HIV-1LAI; conditions: MTT assay, MT-4 cells, Table 2
[3] = tested on: MT-4 cells; conditions: Table 2
[4] = tested on: other cells
[5] = tested on: RT of wild-type HIV; design: method as in PMID 15456247; conditions: compared with AZTTP
[6] = tested on: RT of the M184V mutant; design: method as in PMID 15456247; conditions: 4′EddCTP compared with RT of wild-type HIV
[7] = molecular target: human mitochondrion DNA polymerase (DNA polymerase γ); design: method as in PMID 17548498, PMID 18487070; conditions: read-out: EC50 to inhibit the incorporation of dATP
[8] = CEM cells, MT4 cells, MAGI-CCR5 cells
[9] = molecular target: DNA polymerase α; conditions: read-out: EC50 against DNA polymerase α
[10] = molecular target: DNA polymerase β; conditions: read-out: EC50 against DNA polymerase β
[11] = tested on: HIV-1 Wild-type; design: method as in PMID 563233, PMID 17548498, PMID 18487070; conditions: Table 6
[12] = tested on: HIV-1 M184V; design: method as in PMID 563233, PMID 17548498, PMID 18487070; conditions: Table 6
[13] = tested on: HIV-1 MDR; design: method as in PMID 563233, PMID 17548498, PMID 18487070; conditions: Table 6
[14] = tested on: HIV-1wild; design: method as in PMID 18487070; conditions: Table 7; read-out: Anti-HIV activity (MAGI assay, µg) HIV-1wild
[15] = tested on: HIV-1MDR; design: method as in PMID 18487070; conditions: Table 7; read-out: Anti-HIV activity (MAGI assay, µg) HIV-1MDR
[16] = tested on: adenosine deaminase; design: method as in PMID 563233, PMID 17548498, PMID 18487070; conditions: conditions where 4′EdA was completely deaminated in 60 min
[17] = design: method as in PMID 563233, PMID 17548498, PMID 18487070; conditions: 120 min, acidic conditions of gastric juices (pH 1.06), 24 ℃
[18] = tested on: HIV; conditions: 24 h after removal of extracellular drug, MT4 cells and MAGI cells cultured with 0.1 µM
[19] = Table 6
[20] = tested on: ICR mice
[21] = tested on: HIV-1M184V; design: method as in PMID 18487070; conditions: Table 7; read-out: Anti-HIV activity (MAGI assay, µg) HIV-1M184V
[22] = tested on: wild-type HIV
[23] = tested on: multi-drug resistant HIV mutant
[24] = tested on: M184V-mutant

In the case of `C#C[C@@]1(CO)CC[C@H](n2ccc(N)nc2=O)O1` [4′EddC, 4′-C-ethynyl-2′,3′-dideoxycytidine], the “activity against HIV in cellular systems” value [1] is given as “inactive”.
For `C#C[C@]1(CO)O[C@@H](n2cc(F)c(N)nc2=O)C[C@@H]1O` [4′-C-ethynyl-2′-deoxy-5-fluorocytidine], the pEC50 [2] is given as 7.52, the CC50 [3] is given as > 100 µM and the “toxicity with other cells” value [4] is given as “toxic”.
In the case of `C#CC1(COP(=O)(O)OP(=O)(O)OP(=O)(O)O)CCC(n2ccc(N)nc2=O)O1` (stereo not drawn) [4′EddCTP], the “activity against the RT of wild-type HIV” value [5] is listed as “more active” and the “activity against RT of the M184V mutant” value [6] is listed as “much less active”.
In the case of `C#C[C@]1(COP(=O)(O)OP(=O)(O)OP(=O)(O)O)O[C@@H](n2cnc3c(N)nc(F)nc32)C[C@@H]1O` [4′Ed2FATP, 2′-deoxy-4′-C-ethynyl-2-fluoroadenosine-5-O-triphosphate], the pEC50 [7] is listed as 5.00, the “intracellular half-life (T1/2)” value [8] is listed as ~18 h and the pEC50 [9] is listed as < 3.70. For the same compound, the pEC50 [10] was < 3.70.
In the case of `C#C[C@]1(CO)O[C@@H](n2cnc3c(N)nc(F)nc32)C[C@@H]1O` [4′Ed2FA, 2′-deoxy-4′-C-ethynyl-2-fluoroadenosine], the pEC50 [11] is given as 10.17, the pEC50 [12] is given as 8.51 and the pEC50 [13] is given as 9.82. For the same compound, the pEC50 [14] was 9.70, the pEC50 [15] was 9.85 and the “stability to adenosine deaminase” value [16] was “completely stable”. The part decomposed [17] was 3%, the “cells protected against the infection of HIV” value [18] was “About 50%” and the CC50 [19] was 7.5 µM. The Survivors/total ([20]; i.v., single dosage 1 mg Kg−1, ICR mice) was 8/8, the Survivors/total ([20]; i.v., single dosage 3 mg Kg−1, ICR mice) was 8/8 and the Survivors/total ([20]; i.v., single dosage 10 mg Kg−1, ICR mice) was 8/8. The Survivors/total ([20]; i.v., single dosage 30 mg Kg−1, ICR mice) was 8/8, the Survivors/total ([20]; i.v., single dosage 100 mg Kg−1, ICR mice) was 8/8 and the “acute toxicity to mice” value ([20]; oral or intravenous administration up to 100 mg kg−1) was “did not show any acute toxicity”. For the same compound, the Survivors/total ([20]; p.o, single dosage 1 mg Kg−1, ICR mice) was 8/8, the Survivors/total ([20]; p.o, single dosage 3 mg Kg−1, ICR mice) was 8/8 and the Survivors/total ([20]; p.o, single dosage 10 mg Kg−1, ICR mice) was 8/8. The Survivors/total ([20]; p.o, single dosage 30 mg Kg−1, ICR mice) was 8/8 and the Survivors/total ([20]; p.o, single dosage 100 mg Kg−1, ICR mice) was 8/8.
In the case of `C#C[C@@]1(CO)C=C[C@H](n2cc(C)c(=O)[nH]c2=O)O1` [4′Ed4T, 4′-C-ethynyl-2′,3′-didehydro-3′-deoxythymidine], the pEC50 [14] is listed as 5.82, the pEC50 [15] is listed as 5.96 and the pEC50 [21] is listed as 4.77. The “potency against wild-type HIV compared with d4T” value [22] was “more potent”, the “potency against multi-drug resistant HIV mutant compared with d4T” value [23] was “more potent” and the “potency against M184V-mutant compared with d4T” value [24] was “a little less potent”.
